# Experimental data: the supplement of paper PMC10307832
# Assays:
# Assay in all cases: relative viability (nuclei count vs DMSO), 5 days (fraction); higher = more cells survive
# [1] = compound: CC(C)(C)c1nc(-c2cccc(NS(=O)(=O)c3c(F)cccc3F)c2F)c(-c2ccnc(N)n2)s1 [Dabrafenib] + COc1cccc2cc(-c3nc([C@H]4CC[C@H](C(=O)O)CC4)n4ncnc(N)c34)[nH]c12 [OSI-027] (partner 0.5 µM)
# How it was run: (§1)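 Lung cancer cell lines were seeded in 1536-well plates and dosed by pin tool the next day, with either a single drug or a fixed anchor-drug dose combined with five library-drug doses (not always all listed) spaced in √10 steps. Five days later, one step fixed the cells and stained their nuclei (final 0.05% Triton X-100, 1% formaldehyde, 1 ug/ml Hoechst), and nuclei were counted on 4× images. Relative viability is the nuclei count in treated wells divided by the count in vehicle wells, and each value is the median of duplicate plates.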
# [2] = compound: CC(C)(C)c1nc(-c2cccc(NS(=O)(=O)c3c(F)cccc3F)c2F)c(-c2ccnc(N)n2)s1 [Dabrafenib] + Cc1cc(Nc2cc(N3CCN(C)CC3)nc(Sc3ccc(NC(=O)C4CC4)cc3)n2)n[nH]1 [Tozasertib] (partner 0.1 µM)
# How it was run: as §1
# [3] = compound: CC(C)(C)c1nc(-c2cccc(NS(=O)(=O)c3c(F)cccc3F)c2F)c(-c2ccnc(N)n2)s1 [Dabrafenib] + CS(=O)(=O)N1CCN(Cc2cc3nc(-c4cccc5[nH]ncc45)nc(N4CCOCC4)c3s2)CC1 [Pictilisib] (partner 1 µM)
# How it was run: as §1
# [4] = compound: CC(C)(C)c1nc(-c2cccc(NS(=O)(=O)c3c(F)cccc3F)c2F)c(-c2ccnc(N)n2)s1 [Dabrafenib] + C[C@]1(O)C[C@@H](c2nc(-c3ccc4ccc(-c5ccccc5)nc4c3)c3c(N)nccn32)C1 [Linsitinib] (partner 1 µM)
# How it was run: as §1
Cell Line,relative viability ([1]; first compound 0.003 µM),relative viability ([1]; first compound 0.009487 µM),relative viability ([1]; first compound 0.03 µM),relative viability ([1]; first compound 0.09487 µM),relative viability ([1]; first compound 0.3 µM),relative viability ([2]; first compound 0.009487 µM),relative viability ([2]; first compound 0.03 µM),relative viability ([2]; first compound 0.09487 µM),relative viability ([2]; first compound 0.3 µM),relative viability ([3]; first compound 0.003 µM),relative viability ([3]; first compound 0.009487 µM),relative viability ([3]; first compound 0.03 µM),relative viability ([3]; first compound 0.09487 µM),relative viability ([3]; first compound 0.3 µM),relative viability ([4]; first compound 0.003 µM),relative viability ([4]; first compound 0.009487 µM),relative viability ([4]; first compound 0.03 µM),relative viability ([4]; first compound 0.09487 µM),relative viability ([4]; first compound 0.3 µM),relative viability ([2]; first compound 0.003 µM)
PC-14,0.438,1.13,0.775,0.804,0.794,0.631,0.647,0.527,0.624,0.761,0.862,0.655,0.688,0.696,0.956,1.03,0.957,0.975,0.984,–
RERF-LC-KJ,0.565,0.767,0.615,0.68,0.731,0.593,0.581,0.456,0.591,0.575,0.592,0.455,0.616,0.748,0.876,0.989,0.871,0.83,1.01,0.484
ChaGo-K-1,0.209,0.53,0.502,0.504,0.651,0.223,0.225,0.194,0.239,–,0.591,0.749,0.721,0.933,–,–,–,–,–,0.219
H3255,0.572,0.579,0.62,0.56,0.583,0.675,0.721,0.609,0.629,0.394,0.566,0.43,0.405,0.462,0.944,1.06,1.01,0.832,1.03,0.507
NCI-H1299,–,–,–,–,–,–,–,–,–,0.74,0.756,0.797,0.464,0.441,0.941,0.959,0.798,0.743,0.625,–
NCI-H1563,0.732,0.742,0.675,0.791,0.676,–,–,–,–,0.591,0.628,0.6,0.633,0.583,1.16,1.18,1.16,1.2,1.39,–
SK-MES-1,0.254,0.663,0.552,0.495,0.23,0.874,0.861,0.811,0.565,0.363,0.416,0.269,0.376,0.377,1.07,1.04,1.06,1.04,1.12,0.863
NCI-H1648,0.225,0.249,0.298,0.244,0.209,0.463,0.685,0.396,0.376,–,–,–,–,–,–,–,–,–,–,0.641
NCI-H1755,0.668,0.672,0.591,0.661,0.701,0.659,0.539,0.559,0.614,0.444,0.414,0.237,0.418,0.342,0.917,0.984,0.887,0.975,0.99,0.555
NCI-H1651,0.724,0.666,0.748,0.714,0.736,0.763,0.57,0.668,0.679,0.534,0.58,0.559,0.554,0.596,0.962,1.01,0.833,0.971,0.989,0.741
